Measurements as given in patent US7374894B2, “Methods of identifying compounds that modulate IL-4 receptor-mediated IgE synthesis utilizing a chloride intracellular channel 1 protein” (Rigel Pharmaceuticals, Inc., priority 2002, dated 2008).

Assays:
[1] = system: IL-4 induced germline ε transcription; assay: Re-infection assay in naïve A5T4 reporter cells (BFP-/BFP+ GFP FACS); format: cell-based, human; details: for functional category of mutant as compared to wild type peptide, based on reporter ratio: % change calculated after subtracting 1.0 from the individual ratios; for Reporter Ratio: screening in the A5T4 reporter line, DL03 wt and double-residue mutants
Protocol: The ability of peptide DL03 wt (SEQ ID NO:1) to inhibit germline ε transcription was confirmed in naïve cells. Briefly, Phoenix cells were transfected with a retroviral vector encoding a BFP-DL03 wt (SEQ ID NO:1) peptide fusion as described in WO 99/58663 and WO 97/27213. Naïve A5T4 cells were infected with the resultant virions and grown for 3 days. The infected cells were stimulated with IL-4 (60 U/mL) and, after 3 days, the cells were assessed by FACS for BFP and GFP. […] The BFP fluorescence data corresponding to the BFP^+ and BFP^− populations are provided in Panel A. The GFP fluorescence data corresponding to the BFP^+ and BFP^− populations are presented in Panel B. The reporter ratio for this purpose is determined as the geometric mean of the GFP fluorescence of the BFP^− population divided by the geometric mean of the GFP fluorescence of the BFP^+ population as presented in panel C. The reporter ratio for the DL03 in this re-infection assay was 1.50.
A collection of DL03 mutants was generated by replacing double amino acid residues in the sequence of DL03 wt (SEQ ID NO:1) with a different amino acid, typically an alanine, as described in copending application Ser. No. 10/095,659. The functional profiles for the mutants derived from DL03 wt (SEQ ID NO:1) was obtained by constructing and screening for activity in the A5T4 reporter cell line in the manner described above. The activity of each mutant at the germline ε promoter is reflected in the reporter ratio as described above. The reporter ratios were the functional values that were used to develop the functional profiles.
Comparison of the interaction and functional profiles was performed by categorizing the mutants of DL03 based on the functional and interaction assays. Based on the reporter ratio, described in panel C of FIG. 4, each mutant was categorized into one of four functional categories: (1) reduction of function (ROF); (2) loss of function (LOF); (3) increase of function (IOF) or (4) functionally neutral (N) as compared to the activity of the wild type peptide, here DL03 wt (SEQ ID NO:1). As mentioned previously, cells expressing a peptide that inhibits germline ε transcription have reporter ratios of ≧1.1. Cell expressing a loss of function (LOF) mutant have a reporter ratio of […]. […] Functionally neutral mutants have reporter ratios that fall within ±50% of that of the DL03 wt (SEQ ID NO:1). The % increase or decrease in reporter ratio is calculated after subtracting 1.0 from the individual ratios. Using these criteria, peptide DL03IL (SEQ ID NO:2) and peptide DL03LA (SEQ ID NO:4) were designated as ROF mutants, peptide DL03KP (SEQ ID NO:3) was designated as a IOF mutant, peptides DL03TS (SEQ ID NO:5), DL03GA (SEQ ID NO:6), DL03TT (SEQ ID NO:7), DL03AS (SEQ ID NO:8), and DL03MT (SEQ ID NO:9) were designated as neutral. No LOF mutant were found for the DL03 clone.

human CLIC1 (hCLIC1) = molecular target: T1, human CLIC1 (hCLIC1) (Homo sapiens, UniProt O00299); assay: β-galactosidase yeast two hybrid (YTH) interaction assay; format: binding
T1 construct: expressed in transfected cells; prey cDNA from the A5T4 reporter line (derived from BJAB B-cells)
Protocol: Potential binding partners for peptide DL03 wt (SEQ ID: 1) were identified in a β-galactosidase yeast two-hybrid (YTH) assay using peptide DL03 wt (SEQ ID: 1) as bait and a cDNA library constructed from the A5T4 reporter cell line as prey. Binding was assessed by β-galactosidase quantification using BetaFluor (Novagen) as a substrate. A negative interaction control (no cDNA fused downstream of the GAL4 activation domain sequence) was also run. A general outline of the YTH assay is illustrated in FIG. 5A. Following clustering, filtering to remove non-specific bait hits (e.g., GFP and BFP), singletons and clusters recognized by 10 or more cDNA baits (based upon historical YTH assays), and prioritization, 22 prey clones were identified as hits.
Potential targets identified in the YTH assay were reconfirmed as generally outlined in FIG. 6. The cDNA clones identified as hits in the YTH assay were purified and rescreened for interaction with the DL03 wt (SEQ ID NO:1) peptide in a YTH assay. The hit clones were also screened in a control assay for interaction with the BFP using a vector (pGBKT7) that contained only the BFP and not the DL03 peptide. At this stage, 12 putative target clones remained.
The interaction of DL03 wt (SEQ ID NO:1) peptide and its mutants with the clones identified as potential targets for the peptide DL03 wt (SEQ ID NO:1) was then quantified in a β-galactosidase YTH assay. The YTH assay was performed in the manner described above. A general outline of this YTH assay is illustrated in FIG. 5B. For each clone tested, an interaction profile was developed by comparing the β-galactosidase activity of each mutant to that of the wild type peptide as described above.
The interaction of these IOF and ROF mutants with different polypeptides encoded by the putative target clones were quantified using the YTH assay described above. Based on the YTH assay, for each putative target, the mutants were categorized into the following four interaction categories: (1) reduction of interaction (ROI); (2) loss of interaction (LOI); (3) increase of interaction (IOI); and (4) interactionally neutral (N), by assessing the binding affinity ratio of the mutant peptide and the wild type peptide (β-gal activity of mutant/wild type) to the putative target. For the YTH interaction assay mutants DL03IL (SEQ ID NO:2), DL03KP (SEQ ID NO:3), DL03LA (SEQ ID NO:4), as well as originally identified peptide DL03 wt (SEQ ID NO:1) were used.
Based on these functional and interaction categorizations, graphic profile representations for each potential target polypeptide were obtained using a weighted categorization process as depicted in FIG. 9. […]

germline α promoter = assay: TAQMAN assay of endogenous germline α transcription in ST486 cells stimulated with TGF-β; format: cell-based; details: TGF-β 40 ng/ml, average of 3 values, p=0.3228
Protocol: The assay was similar to that described in the immediately preceding section, except that ST486 cells (ATCC # CRL-1647) engineered to express the tetracycline-regulated transactivator were infected and the infected cells were stimulated with TGF-β (40 ng/ml; Peprotech). The primers and probe, which are specific for the transcription product driven by the ST486 endogenous α promoter, were as follows (the probe was labeled at the 5′-end with Fam and at the 3′-end with Tamra): […]

Substance | functional category of mutant as compared to wild type peptide, based on reporter ratio [1] | Reporter Ratio [1] | binding to human CLIC1 in yeast two hybrid interaction assay (human CLIC1 (hCLIC1)) | endogenous α inhibition ratio (germline α promoter)
LYAAI LLHGATTASMTKPLA (LYAAILLHGATTASMTKPLA; peptide generated from combinatorial library) [DL03TS, double-residue mutant of DL03 wt] | neutral | 1.49 | – | –
LYTS I LLHARTTASMTKPLA (LYTSILLHARTTASMTKPLA; peptide generated from combinatorial library) [DL03GA, double-residue mutant of DL03 wt] | neutral | 1.67 | – | –
LYTS I LLHGAAAASMTKPLA (LYTSILLHGAAAASMTKPLA; peptide generated from combinatorial library) [DL03TT, double-residue mutant of DL03 wt] | neutral | 1.43 | – | –
LYTS I LLHGATTASAAKPLA (LYTSILLHGATTASAAKPLA; Peptide generated from combinatorial library) [DL03MT, double-residue mutant of DL03 wt] | neutral | 1.30 | – | –
LYTS I LLHGATTASMTAALA (LYTSILLHGATTASMTAALA; peptide generated from combinatorial library) [DL03KP, double-residue mutant of DL03 wt] | IOF (An increase of function mutant (IOF) shows a >50% increase in reporter ratio) | – | found to bind | –
LYTS I LLHGATTASMTKPAR (LYTSILLHGATTASMTKPAR; peptide generated from combinatorial library) [DL03LA, double-residue mutant of DL03 wt] | – | – | found to bind | –
LYTS I LLHGATTASMTKPLA (LYTSILLHGATTASMTKPLA; peptide generated from a combinatorial library) [DL03wt, peptide 20-mer identified from a retroviral random library, expressed in cells as BFP-peptide fusion] | – | – | found to bind | 0.66
LYTS I LLHGATTRAMTKPLA (LYTSILLHGATTRAMTKPLA; Peptide generated from combinatorial library) [DL03AS, double-residue mutant of DL03 wt] | neutral | 1.57 | – | –
LYTSAALHGATTASMTKPLA (Peptide generated by a combinatorial library) [DL03IL, double-residue mutant of DL03 wt] | – | – | found to bind | –
